The source of these data is patent EP4389751A1, “HETEROCYCLIC COMPOUNDS AND USES THEREOF” (Kumquat Biosciences Inc., priority 2021, dated 2024).

Where two headings read alike, the source gives them in different places.

For one test, the target named is T1, K-Ras G12S (Homo sapiens, UniProt P01116, G12S).
T1 construct: made in house; host or cells: E. coli (e.g., BL21 (DE3))
Description: HTRF assay of the K-Ras / SOS1 interaction. Type of test: biochemical. The conditions noted are these: IC50 (against K-Ras G12D) to IC50 (against K-Ras G12S). The procedure, abridged:
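Compounds (duplicates, 10 µM to 0.01 µM) were incubated ≥~10 min with Eu-labelled GST-K-Ras G12S and XL665-labelled His-hSOS1 in HEPES pH 7.4 buffer containing NaCl, DTT, BSA and Igepal. Disruption measured as HTRF emission ratio 665/620 nm, fitted to IC50.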

Another test deals with GP2D cells. Nature of the test: Cell proliferation assay (CellTiter-Glo), K-Ras G12D cells. Format: cell-based. The conditions noted are these: read-out: Inhibition of GP2D Cells (IC50). The procedure, abridged: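 CellTiter-Glo luminescence, taken roughly 5 days after dosing, measured growth of G12D-mutant GP2D cells in DMEM/2 mM glutamine/10% FBS. Compound dilution series (e.g., 9 points, 3-fold) added the day after plating. Four-parameter fitting gave IC50.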

T1 sequence (P01116 1-188 isoform P01116-2 G12S): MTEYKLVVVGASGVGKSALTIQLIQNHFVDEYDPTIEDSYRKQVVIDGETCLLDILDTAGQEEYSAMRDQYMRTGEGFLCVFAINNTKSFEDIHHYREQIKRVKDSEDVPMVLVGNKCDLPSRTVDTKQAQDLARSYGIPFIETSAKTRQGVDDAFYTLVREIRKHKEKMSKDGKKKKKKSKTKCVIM

Regarding `Nc1nc2c(-c3c(Cl)cc4c(N5CC6CCC(C5)N6C(=O)n5cc(F)cn5)nc(OC[C@@]56CCCN5C[C@H](F)C6)nc4c3F)ccc(F)c2s1` [Compound A101, (3-(7-(2-amino-7-fluorobenzo[d]thiazol-4-yl)-6-chloro-8-fluoro-2-(((2R,7aS)-2-fluorotetrahydro-1H-pyrrolizin-7a(5H)-yl)methoxy)quinazolin-4-yl)-3,8-diazabicyclo[3.2.1]octan-8-yl)(4-fluoro-1H-pyrazol-1-yl)methanone], the “Ratio of IC50 KRAS G12D vs. IC50 KRAS G12S” value (“Ratio” below) on K-Ras G12S is “A (A: indicates that the ratio of IC50 against KrasG12D vs. IC50 against KrasG12S is 1-fold or greater)”. Besides, the IC50 in the test with GP2D cells (GP2d) was 1000 to 10000 nM.
Consider `N#Cc1cnn(C(=O)N2CCC(Nc3nc(OC[C@@]45CCCN4C[C@H](F)C5)nc4c(F)c(-c5ccc(F)c6sc(N)nc56)c(Cl)cc34)CC2)c1` [Compound A151, 1-(4-((7-(2-amino-7-fluorobenzo[d]thiazol-4-yl)-6-chloro-8-fluoro-2-(((2R,7aS)-2-fluorotetrahydro-1H-pyrrolizin-7a(5H)-yl)methoxy)quinazolin-4-yl)amino)piperidine-1-carbonyl)-1H-pyrazole-4-carbonitrile], for which, on K-Ras G12S, the “Ratio” value is “A (A: indicates that the ratio of IC50 against KrasG12D vs. IC50 against KrasG12S is 1-fold or greater)”. Also, the IC50 with GP2D cells (GP2D cells (K-Ras G12D)) was 1000 to 10000 nM.
For the molecule `Nc1nc2c(-c3c(Cl)cc4c(NC5CCN(C(=O)n6cncn6)CC5)nc(OC[C@@]56CCCN5C[C@H](F)C6)nc4c3F)ccc(F)c2s1` [Compound A187, (4-((7-(2-amino-7-fluorobenzo[d]thiazol-4-yl)-6-chloro-8-fluoro-2-(((2R,7aS)-2-fluorotetrahydro-1H-pyrrolizin-7a(5H)-yl)methoxy)quinazolin-4-yl)amino)piperidin-1-yl)(1H-1,2,4-triazol-1-yl)methanone], at K-Ras G12S, the “Ratio” value was “A (A: indicates that the ratio of IC50 against KrasG12D vs. IC50 against KrasG12S is 1-fold or greater)”. In the test on GP2D cells (GP2D cells (K-Ras G12D)), the IC50 lay in the range of 1000 to 10000 nM.
Regarding `Nc1nc2c(-c3c(Cl)cc4c(N5C6COCC5CN(C(=O)n5cncn5)C6)nc(OC[C@@]56CCCN5C[C@H](F)C6)nc4c3F)ccc(F)c2s1` [Compound A270, (9-(7-(2-amino-7-fluorobenzo[d]thiazol-4-yl)-6-chloro-8-fluoro-2-(((2R,7aS)-2-fluorotetrahydro-1H-pyrrolizin-7a(5H)-yl)methoxy)quinazolin-4-yl)-3-oxa-7,9-diazabicyclo[3.3.1]nonan-7-yl)(1H-1,2,4-triazol-1-yl)methanone], on K-Ras G12S, the “Ratio” value is reported as “A (A: indicates that the ratio of IC50 against KrasG12D vs. IC50 against KrasG12S is 1-fold or greater)”. Besides, the IC50 in the test with GP2D cells (GP2d) is no more than 1000 nM.
The matching figures for `Nc1nc2c(-c3c(Cl)cc4c(N5CC6CCC(C5)N6C(=O)n5cnc(F)c5)nc(OC[C@@]56CCCN5C[C@H](F)C6)nc4c3F)ccc(F)c2s1` [Compound A135, (3-(7-(2-amino-7-fluorobenzo[d]thiazol-4-yl)-6-chloro-8-fluoro-2-(((2R,7aS)-2-fluorotetrahydro-1H-pyrrolizin-7a(5H)-yl)methoxy)quinazolin-4-yl)-3,8-diazabicyclo[3.2.1]octan-8-yl)(4-fluoro-1H-imidazol-1-yl)methanone]: “A (A: indicates that the ratio of IC50 against KrasG12D vs. IC50 against KrasG12S is 1-fold or greater)” and no more than 1000 nM.
Turning to `Nc1nc2c(-c3c(Cl)cc4c(N5CC6CCC(C5)N6C(=O)n5cccn5)nc(OC[C@@]56CCCN5C[C@H](F)C6)nc4c3F)ccc(F)c2s1` [Compound A130, (3-(7-(2-amino-7-fluorobenzo[d]thiazol-4-yl)-6-chloro-8-fluoro-2-(((2R,7aS)-2-fluorotetrahydro-1H-pyrrolizin-7a(5H)-yl)methoxy)quinazolin-4-yl)-3,8-diazabicyclo[3.2.1]octan-8-yl)(1H-pyrazol-1-yl)methanone], the “Ratio” value at K-Ras G12S was “A (A: indicates that the ratio of IC50 against KrasG12D vs. IC50 against KrasG12S is 1-fold or greater)”. Further, the IC50 in the test on GP2D cells (GP2d) lay within 1000 to 10000 nM.
Consider `N#Cc1c(N)sc2c(F)ccc(-c3c(Cl)cc4c(C5C[C@H]6CC[C@@H](C5)N6C(=O)n5cncn5)nc(OC[C@@]56CCCN5C[C@H](F)C6)nc4c3F)c12` (stereo partly drawn) [Compound A235, 4-(4-((1R,5S)-8-(1H-1,2,4-triazole-1-carbonyl)-8-azabicyclo[3.2.1]octan-3-yl)-6-chloro-8-fluoro-2-(((2R,7aS)-2-fluorotetrahydro-1H-pyrrolizin-7a(5H)-yl)methoxy)quinazolin-7-yl)-2-amino-7-fluorobenzo[b]thiophene-3-carbonitrile], for which the “Ratio” value on K-Ras G12S is listed as “A (A: indicates that the ratio of IC50 against KrasG12D vs. IC50 against KrasG12S is 1-fold or greater)”. Moreover, in the test on GP2D cells (GP2D cells (K-Ras G12D)), the IC50 was 1000 to 10000 nM.
The matching figures for `Nc1nc2c(-c3c(Cl)cc4c(NC5CCN(C(=O)n6ccc(F)n6)CC5)nc(OC[C@@]56CCCN5C[C@H](F)C6)nc4c3F)ccc(F)c2s1` [Compound A222, (4-((7-(2-amino-7-fluorobenzo[d]thiazol-4-yl)-6-chloro-8-fluoro-2-(((2R,7aS)-2-fluorotetrahydro-1H-pyrrolizin-7a(5H)-yl)methoxy)quinazolin-4-yl)amino)piperidin-1-yl)(3-fluoro-1H-pyrazol-1-yl)methanone]: “A (A: indicates that the ratio of IC50 against KrasG12D vs. IC50 against KrasG12S is 1-fold or greater)” and 1000 to 10000 nM.
As for `Nc1nc2c(-c3c(Cl)cc4c(NC5CCN(C(=O)n6cc(F)cn6)CC5)nc(OC[C@@]56CCCN5C[C@H](F)C6)nc4c3F)ccc(F)c2s1` [Compound A291, (4-((7-(2-amino-7-fluorobenzo[d]thiazol-4-yl)-6-chloro-8-fluoro-2-(((2R,7aS)-2-fluorotetrahydro-1H-pyrrolizin-7a(5H)-yl)methoxy)quinazolin-4-yl)amino)piperidin-1-yl)(4-fluoro-1H-pyrazol-1-yl)methanone], the “Ratio” value at K-Ras G12S was “A (A: indicates that the ratio of IC50 against KrasG12D vs. IC50 against KrasG12S is 1-fold or greater)”. In the test with GP2D cells (GP2D cells (K-Ras G12D)), the IC50 was 1000 to 10000 nM.
On to `Nc1nc2c(-c3c(Cl)cc4c(N5C6CCC5CN(C(=O)n5cncn5)C6)nc(OC[C@@]56CCCN5C[C@H](F)C6)nc4c3F)ccc(F)c2s1` [Compound A239, (8-(7-(2-amino-7-fluorobenzo[d]thiazol-4-yl)-6-chloro-8-fluoro-2-(((2R,7aS)-2-fluorotetrahydro-1H-pyrrolizin-7a(5H)-yl)methoxy)quinazolm-4-yl)-3,8-diazabicyclo[3.2.1]octan-3-yl)(1H-1,2,4-triazol-1-yl)methanone], for which the “Ratio” value on K-Ras G12S is “A (A: indicates that the ratio of IC50 against KrasG12D vs. IC50 against KrasG12S is 1-fold or greater)”. For the same molecule, the IC50 in the test with GP2D cells (GP2D cells (K-Ras G12D)) was no more than 1000 nM.
Take `N#Cc1cccn1C(=O)N1C2CCC1CN(c1nc(OC[C@@]34CCCN3C[C@H](F)C4)nc3c(F)c(-c4ccc(F)c5sc(N)nc45)c(Cl)cc13)C2` [Compound A121, 1-(3-(7-(2-amino-7-fluorobenzo[d]thiazol-4-yl)-6-chloro-8-fluoro-2-(((2R,7aS)-2-fluorotetrahydro-1H-pyrrolizin-7a(5H)-yl)methoxy)quinazolin-4-yl)-3,8-diazabicyclo[3.2. 1]octane-8-carbonyl)-1H-pyrrole-2-carbonitrile]: the “Ratio” value on K-Ras G12S is “A (A: indicates that the ratio of IC50 against KrasG12D vs. IC50 against KrasG12S is 1-fold or greater)”. In the test on GP2D cells (GP2d), the IC50 was no more than 1000 nM.
Turning to `Nc1nc2c(-c3c(Cl)cc4c(NC5CCN(C(=O)n6ccnc6)CC5)nc(OC[C@@]56CCCN5C[C@H](F)C6)nc4c3F)ccc(F)c2s1` [Compound A117, (4-((7-(2-amino-7-fluorobenzo[d]thiazol-4-yl)-6-chloro-8-fluoro-2-(((2R,7aS)-2-fluorotetrahydro-1H-pyrrolizin-7a(5H)-yl)methoxy)quinazolin-4-yl)amino)piperidin-1-yl)(1H-imidazol-1-yl)methanone], the “Ratio” value on K-Ras G12S was “A (A: indicates that the ratio of IC50 against KrasG12D vs. IC50 against KrasG12S is 1-fold or greater)”. In the test on GP2D cells (GP2D cells (K-Ras G12D)), the IC50 lay within 1000 to 10000 nM.
The matching figures for `Nc1nc2c(-c3c(Cl)cc4c(N5CC6CCC(C5)N6C(=O)Nc5ncccn5)nc(OC[C@@]56CCCN5C[C@H](F)C6)nc4c3F)ccc(F)c2s1` [Compound A274, 3-(7-(2-amino-7-fluorobenzo[d]thiazol-4-yl)-6-chloro-8-fluoro-2-(((2R,7aS)-2-fluorotetrahydro-1H-pyrrolizin-7a(5H)-yl)methoxy)quinazolin-4-yl)-N-(pyrimidin-2-yl)-3,8-diazabicyclo[3.2. 1]octane-8-carboxamide]: “A (A: indicates that the ratio of IC50 against KrasG12D vs. IC50 against KrasG12S is 1-fold or greater)” and no more than 1000 nM.
Consider `N#Cc1c(N)sc2c(F)ccc(-c3c(Cl)cc4c(N5CC6CCC(C5)N6C(=O)n5cccc5C#N)nc(OC[C@@]56CCCN5C[C@H](F)C6)nc4c3F)c12` [Compound A138, 1-(3-(7-(2-amino-3-cyano-7-fluorobenzo[b]thiophen-4-yl)-6-chloro-8-fluoro-2-(((2R,7aS)-2-fluorotetrahydro-1H-pyrrolizin-7a(5H)-yl)methoxy)quinazolin-4-yl)-3,8-diazabicyclo[3.2. 1]octane-8-carbonyl)-1H-pyrrole-2-carbonitrile], for which the “Ratio” value on K-Ras G12S was “A (A: indicates that the ratio of IC50 against KrasG12D vs. IC50 against KrasG12S is 1-fold or greater)”. Also, the IC50 in the test on GP2D cells (GP2d) is no more than 1000 nM.

As a reminder, the IC50 is the concentration at which inhibition is half-maximal.
